Each structure is given as a SMILES string. Counter-ions that a name gives are not always drawn.

Results on 19 compounds are retold here after patent publication US20070049593A1 (priority 2004, published 2007).

T1 sequence (P26663 2420-2963): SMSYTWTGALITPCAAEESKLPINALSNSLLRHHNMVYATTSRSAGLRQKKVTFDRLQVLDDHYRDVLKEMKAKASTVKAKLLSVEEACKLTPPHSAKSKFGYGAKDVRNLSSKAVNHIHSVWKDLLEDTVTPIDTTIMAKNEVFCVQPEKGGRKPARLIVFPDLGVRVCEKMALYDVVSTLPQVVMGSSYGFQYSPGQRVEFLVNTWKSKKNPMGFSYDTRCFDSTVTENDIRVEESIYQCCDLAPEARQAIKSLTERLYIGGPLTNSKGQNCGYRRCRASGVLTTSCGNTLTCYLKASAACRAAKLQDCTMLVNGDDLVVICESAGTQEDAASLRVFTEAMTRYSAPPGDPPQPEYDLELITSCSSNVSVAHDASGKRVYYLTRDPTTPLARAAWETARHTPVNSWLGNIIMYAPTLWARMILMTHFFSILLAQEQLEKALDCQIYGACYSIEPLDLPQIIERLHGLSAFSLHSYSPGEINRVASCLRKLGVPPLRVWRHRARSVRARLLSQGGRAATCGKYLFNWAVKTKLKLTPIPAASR

The assay concerns the target T1, HCV polymerase (Hepatitis C virus genotype 1b, UniProt P26663).
T1 construct: a region encoding NS5B (J Virol 1991 March, 65(3), 1105-13, 544 amino acids after deletion of 47 amino acids on the C-terminal); 6xHis (C); made in house; host or cells: Escherichia coli
Description: biochemical. Details: species or system HCV BK strain. An outline of the steps: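 Recombinant HCV BK-strain NS5B (C-terminal 47 aa deleted, His6-tagged, E. coli), 0.5 μg/ml, run with 5 μg/ml in vitro-transcribed RNA template (polyU/3′X), ATP/GTP/CTP 50 μM, UTP 2 μM plus [3H]UTP, pH 7.5, 25° C, 90 min. TCA-precipitated RNA counted by scintillation; IC50 from activity with vs without compound.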
A word on the IC50: it is the midpoint of a concentration-inhibition curve. `O=C(O)c1ccc2c(C3CCCCC3)c3n(c2c1)CCN(CC(=O)N1CCN(c2ccccc2)CC1)c1ccccc1-3` [Example 1-81, 13-cyclohexyl-5-[2-oxo-2-(4-phenylpiperazin-1-yl)ethyl]-6,7-dihydro-5H-benzo[5,6][1,4]diazepino[7,1-a]indole-10-carboxylic acid dihydrochloride] returned an IC50 of under 100 nM.
Turning to `O=C(O)c1ccc2c(C3CCCCC3)c3n(c2c1)CCN(CCN1CCN(c2ccccc2)CC1)c1ccccc1-3` [Example 1-82, 13-cyclohexyl-5-[2-(4-phenylpiperazin-1-yl)ethyl]-6,7-dihydro-5H-benzo[5,6][1,4]diazepino[7,1-a]indole-10-carboxylic acid trihydrochloride], the concentration for half-maximal inhibition (IC50) was under 100 nM.
With `O=C(O)c1ccc2c(C3CCCCC3)c3n(c2c1)CCN(CCN1CCCCCC1)c1ccccc1-3` [Example 1-83, 5-[2-(azepan-1-yl)ethyl]-13-cyclohexyl-6,7-dihydro-5H-benzo[5,6][1,4]diazepino[7,1-a]indole-10-carboxylic acid dihydrochloride], the half-inhibitory concentration (IC50) is under 100 nM.
`CCN1CCN(C(=O)CN2CCn3c(c(C4CCCCC4)c4ccc(C(=O)NC)cc43)-c3ccccc32)CC1` [Example 1-84, 13-cyclohexyl-5-[2-(4-ethylpiperazin-1-yl)-2-oxoethyl]-N-methyl-6,7-dihydro-5H-benzo[5,6][1,4]diazepino[7,1-a]indole-10-carboxamide] registered an IC50 of under 100 nM.
Under `CCN1CCN(C(=O)CN2CCn3c(c(C4CCCCC4)c4ccc(C(=O)NCCO)cc43)-c3ccccc32)CC1` [Example 1-85, 13-cyclohexyl-5-[2-(4-ethylpiperazin-1-yl)-2-oxoethyl]-N-(2-hydroxyethyl)-6,7-dihydro-5H-benzo[5,6][1,4]diazepino[7,1-a]indole-10-carboxamide] stands under 100 nM.
On to `CCN1CCN(C(=O)CN2CCn3c(c(C4CCCCC4)c4ccc(C(=O)NC(C)(C)CO)cc43)-c3ccccc32)CC1` [Example 1-86, 13-cyclohexyl-5-[2-(4-ethylpiperazin-1-yl)-2-oxoethyl]-N-(2-hydroxy-1,1-dimethylethyl)-6,7-dihydro-5H-benzo[5,6][1,4]diazepino[7,1-a]indole-10-carboxamide], for which the half-maximal inhibitory concentration (IC50) is 100 to 1000 nM.
Under `CN(C)C(=O)N1CCN(CCN2CCn3c(c(C4CCCCC4)c4ccc(C(=O)O)cc43)-c3ccccc32)CC1` [Example 1-87, 13-cyclohexyl-5-[2-(4-dimethylcarbamoylpiperazin-1-yl)ethyl]-6,7-dihydro-5H-benzo[5,6][1,4]diazepino[7,1-a]indole-10-carboxylic acid dihydrochloride] stands under 100 nM; under `O=C(O)c1ccc2c(C3CCCCC3)c3n(c2c1)CCN(CCN1CCN(C(=O)c2ccccc2)CC1)c1ccccc1-3` [Example 1-88, 5-[2-(4-benzoylpiperazin-1-yl)ethyl]-13-cyclohexyl-6,7-dihydro-5H-benzo[5,6][1,4]diazepino[7,1-a]indole-10-carboxylic acid dihydrochloride], under 100 nM.
Then `CC(C)(C)OC(=O)N1CCC(CCN2CCn3c(c(C4CCCCC4)c4ccc(C(=O)O)cc43)-c3ccccc32)CC1` [Example 1-89, 5-[2-(1-tert-butoxycarbonylpiperidin-4-yl)ethyl]-13-cyclohexyl-6,7-dihydro-5H-benzo[5,6][1,4]diazepino[7,1-a]indole-10-carboxylic acid], with under 100 nM; and `O=C(O)c1ccc2c(C3CCCCC3)c3n(c2c1)CCN(CCN1CCCC1=O)c1ccccc1-3` [Example 1-90, 13-cyclohexyl-5-[2-(2-oxopyrrolidin-1-yl)ethyl]-6,7-dihydro-5H-benzo[5,6][1,4]diazepino[7,1-a]indole-10-carboxylic acid monohydrochloride], with under 100 nM; and `CS(=O)(=O)N1CCN(CCN2CCn3c(c(C4CCCCC4)c4ccc(C(=O)O)cc43)-c3ccccc32)CC1` [Example 1-91, 13-cyclohexyl-5-[2-(4-methanesulfonylpiperazin-1-yl)ethyl]-6,7-dihydro-5H-benzo[5,6][1,4]diazepino[7,1-a]indole-10-carboxylic acid dihydrochloride], with under 100 nM.
Then `CC(=O)N1CCC(CCN2CCn3c(c(C4CCCCC4)c4ccc(C(=O)O)cc43)-c3ccccc32)CC1` [Example 1-92, 5-[2-(1-acetylpiperidin-4-yl)ethyl]-13-cyclohexyl-6,7-dihydro-5H-benzo[5,6][1,4]diazepino[7,1-a]indole-10-carboxylic acid monohydrochloride], with under 100 nM; and `CCN1CCC(CCN2CCn3c(c(C4CCCCC4)c4ccc(C(=O)O)cc43)-c3ccccc32)CC1` [Example 1-93, 13-cyclohexyl-5-[2-(1-ethylpiperidin-4-yl)ethyl]-6,7-dihydro-5H-benzo[5,6][1,4]diazepino[7,1-a]indole-10-carboxylic acid dihydrochloride], with under 100 nM.
`CS(=O)(=O)N1CCC(CCN2CCn3c(c(C4CCCCC4)c4ccc(C(=O)O)cc43)-c3ccccc32)CC1` [Example 1-94, 13-cyclohexyl-5-[2-(1-methanesulfonylpiperidin-4-yl)ethyl]-6,7-dihydro-5H-benzo[5,6][1,4]diazepino[7,1-a]indole-10-carboxylic acid monohydrochloride] displayed a 50% inhibitory concentration (IC50) of under 100 nM.
Under `CC(C)(C)OC(=O)N1CCN(CCN2CCn3c(c(C4CCCCC4)c4ccc(C(=O)O)cc43)-c3ccccc32)CC1` [Example 1-95, 5-[2-(4-tert-butoxycarbonylpiperazin-1-yl)ethyl]-13-cyclohexyl-6,7-dihydro-5H-benzo[5,6][1,4]diazepino[7,1-a]indole-10-carboxylic acid dihydrochloride] stands under 100 nM; under `CCN1CCN(C(=O)CN2CCn3c(c(C4CCCCC4)c4ccc(-c5nn[nH]n5)cc43)-c3ccccc32)CC1` [Example 1-96, 2-[13-cyclohexyl-10-(2H-tetrazol-5-yl)-6,7-dihydrobenzo[5,6][1,4]diazepino[7,1-a]indol-5-yl]-1-(4-ethylpiperazin-1-yl)ethanone], under 100 nM.
The compound `CCOC(=O)N1CCN(CCN2CCn3c(c(C4CCCCC4)c4ccc(C(=O)O)cc43)-c3ccccc32)CC1` [Example 1-97, 13-cyclohexyl-5-[2-(4-ethoxycarbonylpiperazin-1-yl)ethyl]-6,7-dihydro-5H-benzo[5,6][1,4]diazepino[7,1-a]indole-10-carboxylic acid dihydrochloride] returned a 50% inhibitory concentration (IC50) of under 100 nM.
Then `CC(=O)N1CCN(CCN2CCn3c(c(C4CCCCC4)c4ccc(C(=O)O)cc43)-c3ccccc32)CC1` [Example 1-98, 5-[2-(4-acetylpiperazin-1-yl)ethyl]-13-cyclohexyl-6,7-dihydro-5H-benzo[5,6][1,4]diazepino[7,1-a]indole-10-carboxylic acid dihydrochloride], with under 100 nM.
The compound `CN(C)CCN1CCn2c(c(C3CCCCC3)c3ccc(C(=O)O)cc32)-c2ccccc21` [Example 1-99, 13-cyclohexyl-5-(2-dimethylaminoethyl)-6,7-dihydro-5H-benzo[5,6][1,4]diazepino[7,1-a]indole-10-carboxylic acid dihydrochloride] showed a half-maximal inhibitory concentration (IC50) of under 100 nM.
